{"source": "the supplement of paper PMC10307832", "assay_in_all_cases": "relative viability (nuclei count vs DMSO), 5 days (fraction); higher = more cells survive", "key": {"Pictilisib + Luminespib": {"compound": "CS(=O)(=O)N1CCN(Cc2cc3nc(-c4cccc5[nH]ncc45)nc(N4CCOCC4)c3s2)CC1 [Pictilisib] + CCNC(=O)c1noc(-c2cc(C(C)C)c(O)cc2O)c1-c1ccc(CN2CCOCC2)cc1 [Luminespib] (partner 0.01 µM)", "method_in_brief": "(§1)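 Cells from lung cancer lines were seeded into 1536-well plates and, one day later, dosed by pin tool. Treatments were either a single drug or a fixed dose of an anchor drug with five library-drug doses (not always all listed) in √10 steps. After 5 days, nuclei were stained in a one-step fixation (final 0.05% Triton X-100, 1% formaldehyde, 1 ug/ml Hoechst) and counted on 4× images, and relative viability is the treated-to-vehicle nuclei ratio, as the median of duplicate plates.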"}, "MK-2206 + OSI-027": {"compound": "NC1(c2ccc(-c3nc4ccn5c(=O)[nH]nc5c4cc3-c3ccccc3)cc2)CCC1 [MK-2206] + COc1cccc2cc(-c3nc([C@H]4CC[C@H](C(=O)O)CC4)n4ncnc(N)c34)[nH]c12 [OSI-027] (partner 0.5 µM)", "method_in_brief": "as §1"}, "MK-2206 + Tozasertib": {"compound": "NC1(c2ccc(-c3nc4ccn5c(=O)[nH]nc5c4cc3-c3ccccc3)cc2)CCC1 [MK-2206] + Cc1cc(Nc2cc(N3CCN(C)CC3)nc(Sc3ccc(NC(=O)C4CC4)cc3)n2)n[nH]1 [Tozasertib] (partner 0.1 µM)", "method_in_brief": "as §1"}, "MK-2206 + Alpelisib": {"compound": "NC1(c2ccc(-c3nc4ccn5c(=O)[nH]nc5c4cc3-c3ccccc3)cc2)CCC1 [MK-2206] + Cc1nc(NC(=O)N2CCC[C@H]2C(N)=O)sc1-c1ccnc(C(C)(C)C(F)(F)F)c1 [Alpelisib] (partner 2 µM)", "method_in_brief": "as §1"}, "Pictilisib + Bortezomib": {"compound": "CS(=O)(=O)N1CCN(Cc2cc3nc(-c4cccc5[nH]ncc45)nc(N4CCOCC4)c3s2)CC1 [Pictilisib] + CC(C)C[C@H](NC(=O)[C@H](Cc1ccccc1)NC(=O)c1cnccn1)B(O)O [Bortezomib] (partner 0.002 µM)", "method_in_brief": "as §1"}}}
{"cell line": "NCI-H358", "values": [{"measurement": "relative viability", "setting": "Pictilisib + Luminespib; first compound 0.02 µM", "value": 0.382}, {"measurement": "relative viability", "setting": "Pictilisib + Luminespib; first compound 0.06325 µM", "value": 0.348}, {"measurement": "relative viability", "setting": "Pictilisib + Luminespib; first compound 0.6325 µM", "value": 0.161}, {"measurement": "relative viability", "setting": "Pictilisib + Luminespib; first compound 2 µM", "value": 0.146}, {"measurement": "relative viability", "setting": "MK-2206 + OSI-027; first compound 0.01 µM", "value": 0.819}, {"measurement": "relative viability", "setting": "MK-2206 + OSI-027; first compound 0.03162 µM", "value": 0.765}, {"measurement": "relative viability", "setting": "MK-2206 + OSI-027; first compound 0.3162 µM", "value": 0.531}, {"measurement": "relative viability", "setting": "MK-2206 + OSI-027; first compound 1 µM", "value": 0.487}, {"measurement": "relative viability", "setting": "MK-2206 + Tozasertib; first compound 0.01 µM", "value": 0.0987}, {"measurement": "relative viability", "setting": "MK-2206 + Tozasertib; first compound 0.03162 µM", "value": 0.112}, {"measurement": "relative viability", "setting": "MK-2206 + Tozasertib; first compound 0.3162 µM", "value": 0.097}, {"measurement": "relative viability", "setting": "MK-2206 + Tozasertib; first compound 1 µM", "value": 0.0994}, {"measurement": "relative viability", "setting": "MK-2206 + Alpelisib; first compound 0.01 µM", "value": 0.9}, {"measurement": "relative viability", "setting": "MK-2206 + Alpelisib; first compound 0.03162 µM", "value": 0.837}, {"measurement": "relative viability", "setting": "MK-2206 + Alpelisib; first compound 0.3162 µM", "value": 0.65}, {"measurement": "relative viability", "setting": "MK-2206 + Alpelisib; first compound 1 µM", "value": 0.563}]}
{"cell line": "EBC-1", "values": [{"measurement": "relative viability", "setting": "Pictilisib + Bortezomib; first compound 0.02 µM", "value": 0.474}, {"measurement": "relative viability", "setting": "Pictilisib + Bortezomib; first compound 0.06325 µM", "value": 0.603}, {"measurement": "relative viability", "setting": "Pictilisib + Bortezomib; first compound 0.6325 µM", "value": 0.414}, {"measurement": "relative viability", "setting": "Pictilisib + Bortezomib; first compound 2 µM", "value": 0.255}, {"measurement": "relative viability", "setting": "MK-2206 + Alpelisib; first compound 0.01 µM", "value": 0.767}, {"measurement": "relative viability", "setting": "MK-2206 + Alpelisib; first compound 0.03162 µM", "value": 0.843}, {"measurement": "relative viability", "setting": "MK-2206 + Alpelisib; first compound 0.3162 µM", "value": 0.388}, {"measurement": "relative viability", "setting": "MK-2206 + Alpelisib; first compound 1 µM", "value": 0.28}]}
{"cell line": "NCI-H1703", "values": [{"measurement": "relative viability", "setting": "Pictilisib + Bortezomib; first compound 0.02 µM", "value": 0.327}, {"measurement": "relative viability", "setting": "Pictilisib + Bortezomib; first compound 0.06325 µM", "value": 0.235}, {"measurement": "relative viability", "setting": "Pictilisib + Bortezomib; first compound 0.6325 µM", "value": 0.19}, {"measurement": "relative viability", "setting": "Pictilisib + Bortezomib; first compound 2 µM", "value": 0.13}, {"measurement": "relative viability", "setting": "MK-2206 + Alpelisib; first compound 0.01 µM", "value": 0.355}, {"measurement": "relative viability", "setting": "MK-2206 + Alpelisib; first compound 0.03162 µM", "value": 0.366}, {"measurement": "relative viability", "setting": "MK-2206 + Alpelisib; first compound 0.3162 µM", "value": 0.317}, {"measurement": "relative viability", "setting": "MK-2206 + Alpelisib; first compound 1 µM", "value": 0.416}]}
{"cell line": "NCI-H1395", "values": [{"measurement": "relative viability", "setting": "Pictilisib + Luminespib; first compound 0.02 µM", "value": 0.704}, {"measurement": "relative viability", "setting": "Pictilisib + Luminespib; first compound 0.06325 µM", "value": 0.838}, {"measurement": "relative viability", "setting": "Pictilisib + Luminespib; first compound 0.6325 µM", "value": 0.748}, {"measurement": "relative viability", "setting": "Pictilisib + Luminespib; first compound 2 µM", "value": 0.534}, {"measurement": "relative viability", "setting": "MK-2206 + OSI-027; first compound 0.01 µM", "value": 0.699}, {"measurement": "relative viability", "setting": "MK-2206 + OSI-027; first compound 0.03162 µM", "value": 0.588}, {"measurement": "relative viability", "setting": "MK-2206 + OSI-027; first compound 0.3162 µM", "value": 0.437}, {"measurement": "relative viability", "setting": "MK-2206 + OSI-027; first compound 1 µM", "value": 0.471}, {"measurement": "relative viability", "setting": "MK-2206 + Tozasertib; first compound 0.01 µM", "value": 0.825}, {"measurement": "relative viability", "setting": "MK-2206 + Tozasertib; first compound 0.03162 µM", "value": 0.693}, {"measurement": "relative viability", "setting": "MK-2206 + Tozasertib; first compound 0.3162 µM", "value": 0.683}, {"measurement": "relative viability", "setting": "MK-2206 + Tozasertib; first compound 1 µM", "value": 0.631}, {"measurement": "relative viability", "setting": "MK-2206 + Alpelisib; first compound 0.01 µM", "value": 1.1}, {"measurement": "relative viability", "setting": "MK-2206 + Alpelisib; first compound 0.03162 µM", "value": 1.13}, {"measurement": "relative viability", "setting": "MK-2206 + Alpelisib; first compound 0.3162 µM", "value": 0.926}, {"measurement": "relative viability", "setting": "MK-2206 + Alpelisib; first compound 1 µM", "value": 0.825}]}
{"cell line": "NCI-H1563", "values": [{"measurement": "relative viability", "setting": "Pictilisib + Bortezomib; first compound 0.02 µM", "value": 0.992}, {"measurement": "relative viability", "setting": "Pictilisib + Bortezomib; first compound 0.06325 µM", "value": 0.839}, {"measurement": "relative viability", "setting": "Pictilisib + Bortezomib; first compound 0.6325 µM", "value": 0.605}, {"measurement": "relative viability", "setting": "Pictilisib + Bortezomib; first compound 2 µM", "value": 0.554}, {"measurement": "relative viability", "setting": "Pictilisib + Luminespib; first compound 0.02 µM", "value": 0.44}, {"measurement": "relative viability", "setting": "Pictilisib + Luminespib; first compound 0.06325 µM", "value": 0.513}, {"measurement": "relative viability", "setting": "Pictilisib + Luminespib; first compound 0.6325 µM", "value": 0.497}, {"measurement": "relative viability", "setting": "Pictilisib + Luminespib; first compound 2 µM", "value": 0.468}, {"measurement": "relative viability", "setting": "MK-2206 + OSI-027; first compound 0.01 µM", "value": 0.756}, {"measurement": "relative viability", "setting": "MK-2206 + OSI-027; first compound 0.03162 µM", "value": 0.727}, {"measurement": "relative viability", "setting": "MK-2206 + OSI-027; first compound 0.3162 µM", "value": 0.626}, {"measurement": "relative viability", "setting": "MK-2206 + OSI-027; first compound 1 µM", "value": 0.6}, {"measurement": "relative viability", "setting": "MK-2206 + Alpelisib; first compound 0.01 µM", "value": 0.934}, {"measurement": "relative viability", "setting": "MK-2206 + Alpelisib; first compound 0.03162 µM", "value": 0.764}, {"measurement": "relative viability", "setting": "MK-2206 + Alpelisib; first compound 0.3162 µM", "value": 0.695}, {"measurement": "relative viability", "setting": "MK-2206 + Alpelisib; first compound 1 µM", "value": 0.656}]}
{"cell line": "NCI-H1299", "values": [{"measurement": "relative viability", "setting": "Pictilisib + Bortezomib; first compound 0.02 µM", "value": 1.02}, {"measurement": "relative viability", "setting": "Pictilisib + Bortezomib; first compound 0.06325 µM", "value": 1.04}, {"measurement": "relative viability", "setting": "Pictilisib + Bortezomib; first compound 0.6325 µM", "value": 1.07}, {"measurement": "relative viability", "setting": "Pictilisib + Bortezomib; first compound 2 µM", "value": 1.05}, {"measurement": "relative viability", "setting": "MK-2206 + Alpelisib; first compound 0.01 µM", "value": 1.03}, {"measurement": "relative viability", "setting": "MK-2206 + Alpelisib; first compound 0.03162 µM", "value": 1.05}, {"measurement": "relative viability", "setting": "MK-2206 + Alpelisib; first compound 0.3162 µM", "value": 1.03}, {"measurement": "relative viability", "setting": "MK-2206 + Alpelisib; first compound 1 µM", "value": 1.03}]}
